Measurements taken from US20250250286A1, “FUSED PYRIMIDINE DERIVATIVES AS KRAS ONCOPROTEIN INHIBITORS” (BETA PHARMA, INC., priority 2021, published 2025).
Structures can show the parent of a compound that is named as a salt.

biological target: T1, KRAS G12D (Homo sapiens, UniProt P01116, G12D); assay: KRAS G12D/SOS1 Nucleotide Exchange Assay (SOS1-mediated Bodipy-GDP to GTP exchange); type: biochemical; conditions: rate constant method (plateau = 0), Bodipy-GDP/KRAS G12D as substrate, 0.5% DMSO, 30 min pre-incubation at RT
T1 construct: Recombinant human KRAS G12D (aa 2-169, expressed in E. coli); His-tag (TEV cleavable) (N); purchased Reaction Biology Corporation (RBC) SOS1: RBC cat #MSC-11-502; KRAS G12D: not given; host or cells: E. coli
Method: The compound pre-incubation time was 30 min at RT and the curve fits were performed when the activities at the highest concentration of compounds were less than 65%.
Reaction Buffer: 40 mM HEPES 7.4, 10 mM MgCl2, 1 mM DTT 0.002% Triton ×100, 0.5% DMSO.
KRAS is pre-loaded with a 5-fold excess of Bodipy-GDP. The excess Bodipy-GDP is separated from loaded protein using a spin desalting column.
• 1. Deliver 10 μL of 1.5× KRAS solution in freshly prepared reaction buffer to reaction wells. • 2. Deliver compounds in 100% DMSO into buffer using acoustic technology (Echo550; nanoliter range). • 3. Incubate compounds with KRAS for 30 minutes at room temperature. • 4. Prepare 3× (SOS1+GTP) solution in reaction buffer. • 5. Deliver 5 μL of SOS1+GTP solution into reactions wells (deliver GTP only to column 1 for no SOS1 control). • 6.
Data Analysis: The fluorescence data was normalized using the equation below and fitted to “one phase exponential decay” equation using GraphPad prism software. The plateau was fixed to zero (use for non-covalent inhibitors) and rate ×1000 was used to calculate the IC50 values.
[formula] • where Yraw is defined as fluorescence at time t, Ao is the average initial fluorescence with no SOS1, and M is the minimum fluorescence at the end of the reaction at the maximum SOS1.
The background subtracted signals (no SOS1 protein wells were used as background) were converted to % activity relative to DMSO controls. Data was analyzed using GraphPad Prism 4 with “sigmoidal dose-response (variable slope)”; 4 parameters with Hill Slope. The constraints were bottom (constant equal to 0) and top (must be less than 120).

T1 sequence (P01116 2-169 G12D): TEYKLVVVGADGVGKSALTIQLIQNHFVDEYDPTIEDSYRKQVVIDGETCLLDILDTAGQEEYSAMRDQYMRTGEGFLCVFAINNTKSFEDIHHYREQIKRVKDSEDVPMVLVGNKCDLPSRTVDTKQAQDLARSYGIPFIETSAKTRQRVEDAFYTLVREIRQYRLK

Row | IC50 | Structure (SMILES)
1 | 8600 nM | Clc1cccc2cccc(-c3ccc4c(N5C[C@H]6CC[C@@H](C5)N6)nc(OCC56CCCN5CCC6)nc4n3)c12 [Example 4, 4-((1R,5S)-3,8-diazabicyclo[3.2.1]octan-3-yl)-7-(8-chloronaphthalen-1-yl)-2-((tetrahydro-1H-pyrrolizin-7a(5H)-yl)methoxy)pyrido[2,3-d]pyrimidine]
2 | 35 ± 5.7 nM | Oc1cc(-c2cnc3c(N4C[C@H]5CC[C@@H](C4)N5)nc(OCC45CCCN4CCC5)nc3c2)c2ccccc2c1 [Example 2, 4-(4-((1R,5S)-3,8-Diazabicyclo[3.2.1]octan-3-yl)-2-((tetrahydro-1H-pyrrolizin-7a(5H)-yl)methoxy)pyrido[3,2-d]pyrimidin-7-yl)naphthalen-2-ol]
3 | 28 nM | C#Cc1c(F)ccc2cc(O)cc(-c3cnc4c(N5C[C@H]6CC[C@@H](C5)N6)nc(OC[C@@]56CCCN5C[C@H](F)C6)nc4c3)c12 [Example 5, 4-(4-((1R,5S)-3,8-Diazabicyclo[3.2.1]octan-3-yl)-2-(((2R,7aS)-2-fluorotetrahydro-1H-pyrrolizin-7a(5H)-yl)methoxy)pyrido[3,2-d]pyrimidin-7-yl)-5-ethynyl-6-fluoronaphthalen-2-ol]
4 | 610 nM | Clc1cccc2cccc(-c3cnc4c(N5C[C@H]6CC[C@@H](C5)N6)nc(OCC56CCCN5CCC6)nc4c3)c12 [Example 1, 4-((1R,5S)-3,8-Diazabicyclo[3.2.1]octan-3-yl)-7-(8-chloronaphthalen-1-yl)-2-((tetrahydro-1H-pyrrolizin-7a(5H)-yl)methoxy)pyrido[3,2-d]pyrimidine hydrochloride (1:3)]
5 | > 10000 nM | CN1CCC[C@H]1COc1nc(N2C[C@H]3CC[C@@H](C2)N3)c2ccc(-c3cccc4cccc(Cl)c34)nc2n1 [Example 3, 4-((1R,5S)-3,8-Diazabicyclo[3.2.1]octan-3-yl)-7-(8-chloronaphthalen-1-yl)-2-(((S)-1-methylpyrrolidin-2-yl)methoxy)pyrido[2,3-d]pyrimidine]
